In brackets after ≈: the same amount, converted by molar mass. Where two headings read alike, the source gives them in different places.
Legend:
[1] = test system: Enterobacter cloacae 3MRGN (clinical bronchial aspirate isolate); test: MIC 50, broth micro-dilution, clinical isolate; type: cell-based; details: E. Cloacae clinical isolate
From the text: (§1) 3.2 Against Selected Bacteria of the ESKAPE Panel and Enterococcus faecalis (DSM Strains)
(§2) Tested reference compounds. Amikacin sulfate (Cat. No. 01693, Chem-Impex), Gentamicin sulfate (Cat. No. G4918, Sigma Aldrich).
(§3) Microbial strains. Enterococcus faecalis DSM 2570, Klebsiella pneumoniae DSM 26371, Acinetobacter baumannii DSM 105126, Enterobacter cloacae 3MRGN (clinical bronchial aspirate isolate).
(§4) Culture media and equipment. BBL™ Mueller Hinton Broth 2 (Lot. BCBW1143, Cat. No. 70192, Sigma); Trypcase Soy Blood-agar plates (Cat. No. 43001, Biomérieux); Cryoinstant (contains 15% glycerol; Cat. No. 822070ZA, VWR International); GasPak™ EZ Standard Incubation Container (Cat. No. 260671, Becton Dickinson); GasPak™ EZ Campy Container System Sachets (Cat. No. 260680, Becton Dickinson); 96-well deep well plate, 1 mL (Cat. No. 0030506.200, Eppendorf); Plate lid (Cat. No. 0030131.525, Eppendorf); 96-well plate, F-bottom (Cat. No. 260860, Nunc); Incubator (Sartorius Certomat BS-1); Laminar flow (Heraeus HS12); UV/VIS meter (Perkin Elmer Lambda Bio+); Platereader (Tecan Infinite M200 Pro).
(§5) Compound preparation. Compounds were prepared in MH2 media at a concentration of 5 mM and stored at 4° C. For testing, solutions of 128 μM were prepared in MH2, for tests against E. faecalis a solution of 512 μM was prepared. Out of these working solutions, 400 μL was transferred to wells in the first column of 96-well deep well plates. Each compound was transferred in triplicate. Plates were previously filled with 200 μL of MH2 media in all wells except for the wells in the first column. After compound and antibiotic addition, the compounds were serial two-fold diluted by transferring 200 μL from the first to the second column, then from the second to the third column and so on. Finally, 200 μL was removed from the last column.
(§6) Inoculum preparation. Microorganisms used were all revived from 15% glycerol storage in Croinstant tubes at −28° C. by plating them on blood agar plates. A. baumanni, and E. cloacae were grown aerobically at 37° C., E. faecalis was grown microaerophilically at 37° C., and K. pneumoniae was grown aerobically at 37° C. Plates were stored at 4° C. for up to two weeks, after which new plates were prepared from −28° C. A single colony was inoculated in MH2 media and grown at 37° C. and 200 rpm to an optical density (measured by UV/Vis spectroscopy) of 0.6-0.8 at 600 nm. Out of these suspensions, actual inoculums were prepared by diluting them to an optical density of 0.1 in MH2 media. From these inoculums, 200 μL was transferred to each well, resulting in a final compound concentration range of 64 μM-31.3 nM for, K. pneumoniae, A. baumanni, and E. cloacae, and 256 μM-125 nM for E. faecalis. Plates inoculated with E. faecalis were placed inside a GasPak™ Container System with GasPak™ Campy Container System sachets. All plates were incubated at 200 rpm for 18 h under the microorganism culturing conditions mentioned above.
(§7) MIC determination. After 18 h of growth, 200 μL was transferred to a 96-well F-bottom plate. The optical density was determined by a plate reader at 600 nm, with 10 s shaking before reading. Triplicate measurements were averaged, and a growth curve was plotted in Excel. The first column in which the growth reached half the value of maximum growth was determined as the MIC50 value for that particular compound.
(§8) MIC50. The MIC50 of a compound was assigned at which the bacterial growth reached half the value of maximum growth.

A. baumannii DSM 105126 = test: MIC 50, broth micro-dilution, DSM strains; type: cell-based, Acinetobacter baumannii
From the text: as §1, §2, §3, §4, §5, §6, §7, §8

[2] = Enterobacter cloacae, read-out: MIC 50
[3] = Acinetobacter baumannii, DSM105126, read-out: MIC 50

SMILES | MIC50 [1, 2] | MIC50 (A. baumannii DSM 105126; [3]) | MIC50 [1] | MIC50 (A. baumannii DSM 105126)
N=C(NC[C@H]1CCNC1)NC1[C@@H](O)C(OC2[C@@H](F)[C@H](O[C@H]3OC(CN)[C@@H](O)CC3N)C(N)C[C@H]2NC(=O)[C@@H](O)CCN)O[C@H](CO)[C@H]1O (stereo partly drawn) [ABX5042, Tobra-AHB-F-Gua (S) pyrrolidine-3-ylmethyl] | 0.25 µM (≈ 0.174 µg/mL) | 0.0625 µM (≈ 0.0435 µg/mL) |  | 
N=C(N)NC1C(O)[C@@H](CO)OC(OC2C(F)[C@H](O[C@H]3OC(CN)[C@@H](O)CC3N)C(N)C[C@H]2NC(=O)[C@@H](O)CCN)[C@@H]1O (some centres unmarked) [ABX5006, Tobra-AHB-F-Gua] | 0.25 to 0.5 µM (≈ 0.153 to 0.306 µg/mL) | 0.0625 µM (≈ 0.0383 µg/mL) |  | 
NCC[C@H](O)C(=O)N[C@@H]1C[C@H](N)[C@@H](O[C@H]2O[C@H](CN)[C@@H](O)[C@H](O)[C@H]2O)[C@H](O)[C@H]1O[C@H]1O[C@H](CO)[C@@H](O)[C@H](N)[C@H]1O [Amikacin, amikacin, reference compound] | 2 µM (≈ 1.17 µg/mL) | 0.5 µM (≈ 0.293 µg/mL) |  | 
N=C(NCc1ccncc1)NC1[C@@H](O)C(OC2[C@@H](F)[C@H](O[C@H]3OC(CN)[C@@H](O)CC3N)C(N)C[C@H]2NC(=O)[C@@H](O)CCN)O[C@H](CO)[C@H]1O (some centres unmarked) [ABX5048, Tobra-AHB-F-Gua pyridin-4-yl methyl] | 1 µM (≈ 0.704 µg/mL) | 0.5 µM (≈ 0.352 µg/mL) |  | 
N=C(NCC1CCOC1)NC1[C@@H](O)C(OC2[C@@H](F)[C@H](O[C@H]3OC(CN)[C@@H](O)CC3N)C(N)C[C@H]2NC(=O)[C@@H](O)CCN)O[C@H](CO)[C@H]1O (some centres unmarked) [ABX5051, Tobra-AHB-F-Gua tetrahydrofuran-3-yl methyl] | 1 µM (≈ 0.697 µg/mL) | 0.5 µM (≈ 0.348 µg/mL) |  | 
NCC[C@H](O)C(=O)N[C@@H]1C[C@H](N)[C@@H](O[C@H]2O[C@H](CN)[C@@H](O)[C@@H](O)[C@H]2O)[C@H](O)[C@H]1O[C@H]1O[C@H](CO)[C@@H](O)[C@H](N)[C@H]1O [ABX3002, 3′Epi-KanaA-AHB] |  |  | 16 µM (≈ 9.37 µg/mL) | 2 µM (≈ 1.17 µg/mL)
N=C(NC[C@@H]1CNCCO1)NC1[C@@H](O)C(OC2[C@@H](F)[C@H](O[C@H]3OC(CN)[C@@H](O)CC3N)C(N)C[C@H]2NC(=O)[C@@H](O)CCN)O[C@H](CO)[C@H]1O (stereo partly drawn) [ABX5040, Tobra-AHB-F-Gua (S) morpholin-2-yl methyl] | 0.25 µM (≈ 0.178 µg/mL) | 0.0625 to 0.125 µM (≈ 0.0445 to 0.089 µg/mL) |  | 

Reference: patent publication US20220127297A1, “Novel Antibacterial 3"-Derivatives Of 4,6-Disubstituted 2,5-Dideoxystreptamine Aminoglycoside Antibiotics” (AGILeBiotics B.V., priority 2018, published 2022)
